Where two headings read alike, the source gives them in different places.
Experiments:
[1] = tested on: ZIKV-RLuc (Cambodian strain FSS13025); assay: microbe, parasite or virus in culture; format: cell-based, Zika virus; details: for AC50: Zika virus, Vero
[2] = tested on: Vero cells
[3] = read-out: Log AC50 (M) (converted)

In the case of `CCN(CC)CCOc1ccc(C(=C(Cl)c2ccccc2)c2ccccc2)cc1` [NCGC00164385-05], the “CC-v2 (curve class classification v2 of the dose response curve)” value (“CC-v2” below) [1] is reported as -2.1, the “Efficacy (difference between neutral response and maximum compound response)” value [1] is reported as -102.171 and the “Max Resp (difference between neutral response and compound response for highest compound concentration)” value [1] is reported as -98.776. For the same compound, the AC50 [1] was 2.33e-05 M, the AC50 [1, 3] was 2.33e-05 M and the AC50 [2] was 23.3 µM. The “Log AC50 (M)” value [2] was -4.6327 M.

`CC(=O)Nc1ccc([C@H](C)C(=O)Nc2ncc(C(C)C)s2)cc1` [NCGC00263191-01] was tested, and the “CC-v2” value [1] was -1.1, the “Efficacy (difference between neutral response and maximum compound response)” value [1] was -109.113 and the “Max Resp (difference between neutral response and compound response for highest compound concentration)” value [1] was -98.511. For the same compound, the AC50 [1] was 2.33e-06 M, the AC50 [1, 3] was 2.33e-06 M and the AC50 [2] was 2.33 µM. For the same compound, the “Log AC50 (M)” value [2] was -5.6327 M.

With `CC(=O)O/N=C1\C(=O)N(Cc2cc(Cl)ccc2Cl)c2ccc(Cl)cc21` [NCGC00247668-01] the “CC-v2” value [1] was -2.1, the “Efficacy (difference between neutral response and maximum compound response)” value [1] was -136.639 and the “Max Resp (difference between neutral response and compound response for highest compound concentration)” value [1] was -99.757. For the same compound, the AC50 [1] was 1.65e-05 M, the AC50 [1, 3] was 1.65e-05 M and the AC50 [2] was 16.5 µM. For the same compound, the “Log AC50 (M)” value [2] was -4.7827 M.

`COc1ccc(CCN(C)CCCC(C#N)(c2ccc(OC)c(OC)c2)C(C)C)cc1OC` (centres unmarked) [NCGC00016083-13] was tested, and the AC50 [1] was 1.51e-05 M, the AC50 [1, 3] was 1.51e-05 M and the AC50 [2] was 15.1 µM. For the same compound, the “Log AC50 (M)” value [2] was -4.8199 M.

With `CCN(CC)Cc1ccc2cc(COC(=O)Nc3ccc(C(=O)NO)cc3)ccc2c1` [NCGC00346743-01] the “CC-v2” value [1] was -1.2, the “Efficacy (difference between neutral response and maximum compound response)” value [1] was -68.967 and the “Max Resp (difference between neutral response and compound response for highest compound concentration)” value [1] was -98.985. The AC50 [1] was 2.61e-06 M, the AC50 [1, 3] was 2.61e-06 M and the AC50 [2] was 2.61 µM. For the same compound, the “Log AC50 (M)” value [2] was -5.5827 M.

With `C=C(C)C1Cc2c(cc(O)c3c2OC2COc4cc(OC)c(OC)cc4C2(O)C3=O)O1` (centres unmarked) [NCGC00347649-02] the “CC-v2” value [1] was -1.1, the “Efficacy (difference between neutral response and maximum compound response)” value [1] was -91.85 and the “Max Resp (difference between neutral response and compound response for highest compound concentration)” value [1] was -97.372. For the same compound, the AC50 [1] was 9.28e-08 M, the AC50 [1, 3] was 9.27e-08 M and the AC50 [2] was 0.0927 µM.

With `Cc1nc(Nc2ncc(C(=O)Nc3c(C)cccc3Cl)s2)cc(N2CCN(CCO)CC2)n1` [NCGC00181129-05] the “CC-v2” value [1] was -1.1, the “Efficacy (difference between neutral response and maximum compound response)” value [1] was -120.53 and the “Max Resp (difference between neutral response and compound response for highest compound concentration)” value [1] was -95.603. The AC50 [1] was 8.51e-08 M, the AC50 [1, 3] was 8.51e-08 M and the “Log AC50 (M)” value [2] was -7.0699 M.

For `NC(=O)C1(N2CCCCC2)CCN(CCCN2c3ccccc3CCc3ccc(Cl)cc32)CC1` [NCGC00253595-01], the “CC-v2” value [1] was -3, the “Efficacy (difference between neutral response and maximum compound response)” value [1] was -112.083 and the “Max Resp (difference between neutral response and compound response for highest compound concentration)” value [1] was -100.465. For the same compound, the AC50 [1] was 2.61e-05 M, the AC50 [1, 3] was 2.61e-05 M and the “Log AC50 (M)” value [2] was -4.5827 M.

With `CCCCC/C=C/C(=O)CCc1ccc(O)c(OC)c1` [NCGC00169591-02] the “CC-v2” value [1] was -2.1, the “Efficacy (difference between neutral response and maximum compound response)” value [1] was -87.809 and the “Max Resp (difference between neutral response and compound response for highest compound concentration)” value [1] was -86.687. It also gave an AC50 [1] of 1.85e-05 M, an AC50 [1, 3] of 1.85e-05 M and an AC50 [2] of 18.5 µM. The “Log AC50 (M)” value [2] was -4.7327 M.

For `CC(C)(C)OC(=O)Nc1ccc(-c2cc(C(=O)NCCCCCCC(=O)NO)no2)cc1` [NCGC00250390-04], the “CC-v2” value [1] was -2.2, the “Efficacy (difference between neutral response and maximum compound response)” value [1] was -83.763 and the “Max Resp (difference between neutral response and compound response for highest compound concentration)” value [1] was -67.554. The AC50 [1] was 2.09e-06 M, the AC50 [1, 3] was 2.09e-06 M and the AC50 [2] was 2.09 µM. For the same compound, the “Log AC50 (M)” value [2] was -5.6796 M.

`CCN1CCN(CC(=O)Nc2ccc(-c3cccc4c(=O)cc(N5CCOCC5)oc34)c3sc4ccccc4c23)CC1` [NCGC00250387-03] was tested, and the “CC-v2” value [1] was -2.4, the “Efficacy (difference between neutral response and maximum compound response)” value [1] was -68.382 and the “Max Resp (difference between neutral response and compound response for highest compound concentration)” value [1] was -59.211. For the same compound, the AC50 [1] was 2.33e-05 M, the AC50 [1, 3] was 2.33e-05 M and the AC50 [2] was 23.3 µM. For the same compound, the “Log AC50 (M)” value [2] was -4.6327 M.

With `O=C(/C=C/c1ccccc1)CC(O)CCc1ccccc1` (centres unmarked) [NCGC00180705-02] the “CC-v2” value [1] was -2.2, the “Efficacy (difference between neutral response and maximum compound response)” value [1] was -46.506 and the “Max Resp (difference between neutral response and compound response for highest compound concentration)” value [1] was -73.055. The AC50 [1] was 2.33e-05 M, the AC50 [1, 3] was 2.33e-05 M and the AC50 [2] was 23.3 µM. The “Log AC50 (M)” value [2] was -4.6327 M.

With `CC1CCCC(SCC(O)C(=O)O)CC(=O)c2c(O)cc(O)cc2CC(=O)O1` (centres unmarked) [NCGC00380419-01] the “CC-v2” value [1] was -3, the “Efficacy (difference between neutral response and maximum compound response)” value [1] was -93.408 and the “Max Resp (difference between neutral response and compound response for highest compound concentration)” value [1] was -77.007. It also gave an AC50 [1] of 1.82e-05 M, an AC50 [1, 3] of 1.82e-05 M and an AC50 [2] of 18.2 µM. For the same compound, the “Log AC50 (M)” value [2] was -4.7408 M.

`CN1CCN(CCCN2c3ccccc3Sc3ccc(C(F)(F)F)cc32)CC1` [NCGC00013226-15] was tested, and the “CC-v2” value [1] was -2.1, the “Efficacy (difference between neutral response and maximum compound response)” value [1] was -93.82 and the “Max Resp (difference between neutral response and compound response for highest compound concentration)” value [1] was -95.429. The AC50 [1] was 2.33e-05 M, the AC50 [1, 3] was 2.33e-05 M and the AC50 [2] was 23.3 µM. The “Log AC50 (M)” value [2] was -4.6327 M.

In the case of `C/C=C(\C)C(=O)O[C@H]1CC2C(=C1C)[C@H]1OC(=O)[C@](C)(O)[C@]1(O)[C@H](OC(=O)CCC)C[C@@]2(C)OC(C)=O` (some centres unmarked) [NCGC00169033-03], the “CC-v2” value [1] is reported as -1.1, the “Efficacy (difference between neutral response and maximum compound response)” value [1] is reported as -98.201 and the “Max Resp (difference between neutral response and compound response for highest compound concentration)” value [1] is reported as -99.812. The AC50 [1] was 2.29e-06 M, the AC50 [1, 3] was 2.29e-06 M and the “Log AC50 (M)” value [2] was -5.6408 M.

`CC1OC(OC2C(OC3C(OC4CCC5(C)C(CCC6(C)C5CC=C5C7CC(C)(C)CCC7(C(=O)O)C(O)CC56C)C4(C)C)OC(C(=O)O)C(O)C3O)OC(CO)C(OC3OCC(O)C(OC4OC(CO)C(O)C4O)C3O)C2OC2OC(C)C(O)C(O)C2O)C(O)C(O)C1O` (centres unmarked) [NCGC00380107-01] was tested, and the “CC-v2” value [1] was -2.1, the “Efficacy (difference between neutral response and maximum compound response)” value [1] was -79.638 and the “Max Resp (difference between neutral response and compound response for highest compound concentration)” value [1] was -81.884. The AC50 [1] was 1.28e-05 M, the AC50 [1, 3] was 1.28e-05 M and the AC50 [2] was 12.8 µM. For the same compound, the “Log AC50 (M)” value [2] was -4.894 M.

With `CNC(=O)c1cccc(-c2ccc3c(N4CCOC[C@@H]4C)nc(N4CCOC[C@@H]4C)nc3n2)c1` [NCGC00346698-01] the “CC-v2” value [1] was -2.2, the “Efficacy (difference between neutral response and maximum compound response)” value [1] was -76.837 and the “Max Resp (difference between neutral response and compound response for highest compound concentration)” value [1] was -71.465. The AC50 [1] was 1.65e-05 M, the AC50 [1, 3] was 1.65e-05 M and the AC50 [2] was 16.5 µM. The “Log AC50 (M)” value [2] was -4.7827 M.

For `CS[C@H]1SC[C@@H]2C(=O)N(C)[C@H](C(C)C)C(=O)OC[C@H](NC(=O)c3cnc4ccccc4n3)C(=O)N[C@H](C)C(=O)N(C)[C@H]1C(=O)N(C)[C@H](C(C)C)C(=O)OC[C@H](NC(=O)c1cnc3ccccc3n1)C(=O)N[C@H](C)C(=O)N2C` [NCGC00163548-01], the “CC-v2” value [1] was -1.1, the “Efficacy (difference between neutral response and maximum compound response)” value [1] was -94.296 and the “Max Resp (difference between neutral response and compound response for highest compound concentration)” value [1] was -94.115. For the same compound, the AC50 [1] was 1.82e-06 M, the AC50 [1, 3] was 1.82e-06 M and the AC50 [2] was 1.82 µM. For the same compound, the “Log AC50 (M)” value [2] was -5.7408 M.

From article PMC8765781, “A platform of assays for the discovery of anti-Zika small-molecules with activity in a 3D-bioprinted outer-blood-retina model” (PLoS ONE, 2022)
